Assays:
[1] = tested on: wild type wheat tissue culture seedlings; experiment: Establishing resistance screening conditions: herbicide concentration inhibiting growth of wild type wheat seedlings; assay type: in vivo; conditions: minimum herbicide concentration inhibiting plant growth, 1/2 MS medium, after 7 days
Experimental: (§1) Herbicides listed in Table 5 were selected, and ½ MS medium containing different concentrations of herbicides was prepared for screening wild type rice and wheat tissue culture seedlings. After 7 days, the minimum herbicide concentrations inhibiting plant growth were selected for subsequent screen of transformed plants.

[2] = tested on: wild type rice tissue culture seedlings; experiment: Establishing resistance screening conditions: herbicide concentration inhibiting growth of wild type rice seedlings; assay type: in vivo; conditions: minimum herbicide concentration inhibiting plant growth, 1/2 MS medium, after 7 days
Experimental: as §1

Row | Structure (SMILES) | Selection concentration for wheat (PPM) [1] [PPM] | Selection concentration for rice (PPM) [2] [PPM]
1 | COC(=O)[C@@H](C)Oc1ccc(Oc2ncc(C(F)(F)F)cc2Cl)cc1 [Haloxyfop-R-methyl] | 0.036 | 0.036
2 | COc1cc(OC)nc(NC(=O)NS(=O)(=O)c2ncccc2C(=O)N(C)C)n1 [Nicosulfuron] | 0.13 | 0.012
3 | CCCCOC(=O)[C@@H](C)Oc1ccc(Oc2ccc(C#N)cc2F)cc1 [cyhalofop-butyl] | – | 5.3
4 | CCOC(=O)[C@@H](C)Oc1ccc(Oc2nc3ccc(Cl)cc3o2)cc1 [fenoxaprop-P-ethyl] | – | 4.5
5 | CCC/C(=N\OCC)C1=C(O)CC(CC(C)SCC)CC1=O (centres unmarked) [sethoxydim] | 0.33 | 0.33
